This passage reports Emax and EC50 results from patent US20260176320A1, “MODULATORS OF G-PROTEIN COUPLED RECEPTORS” (priority 2018, published 2026).

Common to all, as to format: cell-based
Experiment [1] has as its target T1, GLP-1R (Homo sapiens, UniProt P43220). The experiment is described as follows: HitHunter cAMP assay (GLP-1R). Conditions: Table 3A, cAMP; for Emax: read-out: (Emax) GLP-1R; for EC50: read-out: EC50 GLP-1R/nM. A digest of the protocol: (§1)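 Cells were resuspended in HBSS plus HEPES, IBMX (625 μM) and BSA, then dispensed with antibody at 10,000 per well. Agonists followed as 22-point twofold series, 30 min at room temperature. Antibody reagent and detection steps ran 1 h and overnight in the dark before luminescence.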

For another experiment, the target named is T2, GIP-R (Homo sapiens, UniProt P48546).
T2 sequence (P48546 22-466): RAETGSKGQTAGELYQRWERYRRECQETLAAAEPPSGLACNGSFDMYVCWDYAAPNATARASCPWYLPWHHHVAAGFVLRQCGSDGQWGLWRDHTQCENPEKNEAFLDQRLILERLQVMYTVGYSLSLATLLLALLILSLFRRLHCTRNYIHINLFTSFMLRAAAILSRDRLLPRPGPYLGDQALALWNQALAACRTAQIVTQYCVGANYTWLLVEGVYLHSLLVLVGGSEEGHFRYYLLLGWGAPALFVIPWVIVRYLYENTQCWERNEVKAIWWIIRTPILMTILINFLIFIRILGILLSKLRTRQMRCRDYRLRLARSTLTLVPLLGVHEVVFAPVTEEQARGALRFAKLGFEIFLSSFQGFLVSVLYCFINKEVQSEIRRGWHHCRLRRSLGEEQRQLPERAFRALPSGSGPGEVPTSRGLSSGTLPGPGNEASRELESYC
The experiment is described as follows: HitHunter cAMP assay (GIP-R). Conditions: Table 3A, cAMP; for Emax: read-out: (Emax) GIP-R; for EC50: read-out: EC50 GIP-R/nM. In a few lines: as §1

Experiment [2] deals with T1, GLP-1R. The experiment is described as follows: PathHunter β-arrestin assay. Conditions: PathHunter β-arrestin assay; read-out: β-arrestin activity EC50. In a few lines: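 Agonist concentration–response (22 points, 2-fold steps, duplicates) was run on cells plated the previous day in BSA-supplemented (0.2%) medium. Stimulation lasted 90 min at 37 °C, followed by a 3 h dark incubation with detection reagent at room temperature and a luminescence read.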

The structures appear in SMILES notation. Numbered stars: 1 amine (or outer) side, 2 acyl side, 3 side chain; on linkers, the order of the positions; unused ones are H or OH. Square brackets hold non-standard residues; d marks the D form. Side chains are listed from the residue outwards. Peptide text beside a SMILES is read from it. * marks the point of attachment. γGlu = O=C(O)[C@H](CCC(=O)[*:2])N[*:1]; Palmitoyl = CCCCCCCCCCCCCCCC(=O)*; X6 = O=C(CSCC(=O)*)NCCN1CCCCC1=O; Aib = CC(C)(N)C(=O)O

T1 sequence (P43220 24-463): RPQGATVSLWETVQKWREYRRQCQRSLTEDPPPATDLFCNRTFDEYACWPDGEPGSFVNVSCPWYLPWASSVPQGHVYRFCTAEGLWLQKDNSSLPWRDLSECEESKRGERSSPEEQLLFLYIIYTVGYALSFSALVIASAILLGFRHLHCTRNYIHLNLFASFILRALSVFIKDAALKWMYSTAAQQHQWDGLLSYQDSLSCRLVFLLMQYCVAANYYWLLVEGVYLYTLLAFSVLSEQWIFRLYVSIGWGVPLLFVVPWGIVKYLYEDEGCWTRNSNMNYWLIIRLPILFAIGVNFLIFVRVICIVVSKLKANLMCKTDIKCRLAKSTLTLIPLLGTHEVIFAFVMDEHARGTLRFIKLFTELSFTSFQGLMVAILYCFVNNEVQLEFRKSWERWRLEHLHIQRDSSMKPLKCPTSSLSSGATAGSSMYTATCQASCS

In the case of `CCCCCCCCCCCCCCCC(=O)N[C@@H](CCC(=O)NCCCC[C@H](NC(=O)[C@H](CO)NC(=O)[C@@H]1CCCN1C(=O)[C@@H]1CCCN1C(=O)[C@@H]1CCCN1C(=O)[C@H](C)NC(=O)CNC(=O)[C@H](CO)NC(=O)[C@H](CO)NC(=O)[C@@H]1CCCN1C(=O)CNC(=O)CNC(=O)[C@H](C)NC(=O)[C@H](CC(C)C)NC(=O)[C@H](CC(C)C)NC(=O)[C@H](Cc1c[nH]c2ccccc12)NC(=O)[C@H](CC(N)=O)NC(=O)[C@@H](NC(=O)[C@H](Cc1ccccc1)NC(=O)[C@H](CCC(=O)O)NC(=O)C(C)(C)NC(=O)[C@H](C)NC(=O)[C@H](C)NC(=O)[C@H](CCC(N)=O)NC(=O)[C@H](CCCCN)NC(=O)[C@H](CC(=O)O)NC(=O)[C@H](CC(C)C)NC(=O)[C@H](Cc1ccc(O)cc1)NC(=O)[C@@H](NC(=O)[C@H](CO)NC(=O)[C@H](Cc1ccc(O)cc1)NC(=O)[C@H](CC(=O)O)NC(=O)[C@H](CO)NC(=O)[C@@H](NC(=O)[C@H](Cc1ccccc1)NC(=O)[C@@H](NC(=O)CNC(=O)[C@H](CCC(=O)O)NC(=O)C(C)(C)NC(=O)CCN1CCCCC1=O)[C@@H](C)O)[C@@H](C)O)[C@@H](C)CC)C(C)C)C(N)=O)C(=O)O` [Compound 210], the maximal response (Emax) on GLP-1R [1] is 90%; on GIP-R it was 40%. Further, the EC50 at GLP-1R [1] was < 0.1 nM; at GIP-R, 10 to 100 nM; on GLP-1R [2], 10 to 1000 nM.
Taken in the same sequence, the figures for `CCCCCCCCCCCCCCCC(=O)N[C@@H](CCC(=O)NCCCC[C@H](NC(=O)[C@H](CO)NC(=O)[C@@H]1CCCN1C(=O)[C@@H]1CCCN1C(=O)[C@@H]1CCCN1C(=O)[C@H](C)NC(=O)CNC(=O)[C@H](CO)NC(=O)[C@H](CO)NC(=O)[C@@H]1CCCN1C(=O)CNC(=O)CNC(=O)[C@H](C)NC(=O)[C@H](CC(C)C)NC(=O)[C@H](CC(C)C)NC(=O)[C@H](Cc1c[nH]c2ccccc12)NC(=O)[C@H](CC(N)=O)NC(=O)[C@@H](NC(=O)[C@H](Cc1ccccc1)NC(=O)[C@H](CCC(=O)O)NC(=O)C(C)(C)NC(=O)[C@H](C)NC(=O)[C@H](C)NC(=O)[C@H](CCC(N)=O)NC(=O)[C@H](CCCCN)NC(=O)[C@H](CC(=O)O)NC(=O)[C@H](CC(C)C)NC(=O)[C@H](Cc1ccc(O)cc1)NC(=O)[C@@H](NC(=O)[C@H](CO)NC(=O)[C@H](Cc1ccc(O)cc1)NC(=O)[C@H](CC(=O)O)NC(=O)[C@H](CO)NC(=O)[C@@H](NC(=O)[C@H](Cc1ccccc1)NC(=O)[C@@H](NC(=O)CNC(=O)[C@H](CCC(=O)O)NC(=O)[C@H](C)NC(=O)CN1CCCCC1=O)[C@@H](C)O)[C@@H](C)O)[C@@H](C)CC)C(C)C)C(N)=O)C(=O)O` [Compound 211] were 91%, 50%, < 0.1 nM, 0.1 to 1 nM and 10 to 1000 nM.
Taken in the same sequence, the figures for `CCCCCCCCCCCCCCCC(=O)N[C@@H](CCC(=O)NCCCC[C@H](NC(=O)[C@H](CO)NC(=O)[C@@H]1CCCN1C(=O)[C@@H]1CCCN1C(=O)[C@@H]1CCCN1C(=O)[C@H](C)NC(=O)CNC(=O)[C@H](CO)NC(=O)[C@H](CO)NC(=O)[C@@H]1CCCN1C(=O)CNC(=O)CNC(=O)[C@H](C)NC(=O)[C@H](CC(C)C)NC(=O)[C@H](CC(C)C)NC(=O)[C@H](Cc1c[nH]c2ccccc12)NC(=O)[C@H](CC(N)=O)NC(=O)[C@@H](NC(=O)[C@H](Cc1ccccc1)NC(=O)[C@H](CCC(=O)O)NC(=O)C(C)(C)NC(=O)[C@H](C)NC(=O)[C@H](C)NC(=O)[C@H](CCC(N)=O)NC(=O)[C@H](CCCCN)NC(=O)[C@H](CC(=O)O)NC(=O)[C@H](CC(C)C)NC(=O)[C@H](Cc1ccc(O)cc1)NC(=O)[C@@H](NC(=O)[C@H](CO)NC(=O)[C@H](Cc1ccc(O)cc1)NC(=O)[C@H](CC(=O)O)NC(=O)[C@H](CO)NC(=O)[C@@H](NC(=O)[C@H](Cc1ccccc1)NC(=O)[C@@H](NC(=O)CNC(=O)[C@H](CCC(=O)O)NC(=O)[C@H](C)NC(=O)CCN1CCCCC1=O)[C@@H](C)O)[C@@H](C)O)[C@@H](C)CC)C(C)C)C(N)=O)C(=O)O` [Compound 212] were 90%, 50%, < 0.1 nM, 1 to 10 nM and 10 to 1000 nM.
The corresponding values for `CCCCCCCCCCCCCCCC(=O)N[C@@H](CCC(=O)NCCCC[C@H](NC(=O)[C@H](CO)NC(=O)[C@@H]1CCCN1C(=O)[C@@H]1CCCN1C(=O)[C@@H]1CCCN1C(=O)[C@H](C)NC(=O)CNC(=O)[C@H](CO)NC(=O)[C@H](CO)NC(=O)[C@@H]1CCCN1C(=O)CNC(=O)CNC(=O)[C@H](C)NC(=O)[C@H](CC(C)C)NC(=O)[C@H](CC(C)C)NC(=O)[C@H](Cc1c[nH]c2ccccc12)NC(=O)[C@H](CC(N)=O)NC(=O)[C@@H](NC(=O)[C@H](Cc1ccccc1)NC(=O)[C@H](CCC(=O)O)NC(=O)C(C)(C)NC(=O)[C@H](C)NC(=O)[C@H](C)NC(=O)[C@H](CCC(N)=O)NC(=O)[C@H](CCCCN)NC(=O)[C@H](CC(=O)O)NC(=O)[C@H](CC(C)C)NC(=O)[C@H](Cc1ccc(O)cc1)NC(=O)[C@@H](NC(=O)[C@H](CO)NC(=O)[C@H](Cc1ccc(O)cc1)NC(=O)[C@H](CC(=O)O)NC(=O)[C@H](CO)NC(=O)[C@@H](NC(=O)[C@H](Cc1ccccc1)NC(=O)[C@@H](NC(=O)CNC(=O)[C@H](CCC(=O)O)NC(=O)[C@@H](C)NC(=O)CN1CCCCC1=O)[C@@H](C)O)[C@@H](C)O)[C@@H](C)CC)C(C)C)C(N)=O)C(=O)O` [Compound 213] are 90%, 59%, < 0.1 nM, 0.1 to 1 nM and 10 to 1000 nM.
Regarding `CCCCCCCCCCCCCCCC(=O)N[C@@H](CCC(=O)NCCCC[C@H](NC(=O)[C@H](CO)NC(=O)[C@@H]1CCCN1C(=O)[C@@H]1CCCN1C(=O)[C@@H]1CCCN1C(=O)[C@H](C)NC(=O)CNC(=O)[C@H](CO)NC(=O)[C@H](CO)NC(=O)[C@@H]1CCCN1C(=O)CNC(=O)CNC(=O)[C@H](C)NC(=O)[C@H](CC(C)C)NC(=O)[C@H](CC(C)C)NC(=O)[C@H](Cc1c[nH]c2ccccc12)NC(=O)[C@H](CC(N)=O)NC(=O)[C@@H](NC(=O)[C@H](Cc1ccccc1)NC(=O)[C@H](CCC(=O)O)NC(=O)C(C)(C)NC(=O)[C@H](C)NC(=O)[C@H](C)NC(=O)[C@H](CCC(N)=O)NC(=O)[C@H](CCCCN)NC(=O)[C@H](CC(=O)O)NC(=O)[C@H](CC(C)C)NC(=O)[C@H](Cc1ccc(O)cc1)NC(=O)[C@@H](NC(=O)[C@H](CO)NC(=O)[C@H](Cc1ccc(O)cc1)NC(=O)[C@H](CC(=O)O)NC(=O)[C@H](CO)NC(=O)[C@@H](NC(=O)[C@H](Cc1ccccc1)NC(=O)[C@@H](NC(=O)CNC(=O)[C@H](CCC(=O)O)NC(=O)[C@@H](C)NC(=O)CCN1CCCCC1=O)[C@@H](C)O)[C@@H](C)O)[C@@H](C)CC)C(C)C)C(N)=O)C(=O)O` [Compound 214], the Emax on GLP-1R [1] stood at 95%; on GIP-R, 45%. Further, the figures for the EC50 on GLP-1R [1], on GIP-R and at GLP-1R [2] were < 0.1 nM, 1 to 10 nM and 10 to 1000 nM, respectively.
For the compound `CCCCCCCCCCCCCCCC(=O)N[C@@H](CCC(=O)NCCCC[C@H](NC(=O)[C@H](CO)NC(=O)[C@@H]1CCCN1C(=O)[C@@H]1CCCN1C(=O)[C@@H]1CCCN1C(=O)[C@H](C)NC(=O)CNC(=O)[C@H](CO)NC(=O)[C@H](CO)NC(=O)[C@@H]1CCCN1C(=O)CNC(=O)CNC(=O)[C@H](C)NC(=O)[C@H](CC(C)C)NC(=O)[C@H](CC(C)C)NC(=O)[C@H](Cc1c[nH]c2ccccc12)NC(=O)[C@H](CC(N)=O)NC(=O)[C@@H](NC(=O)[C@H](Cc1ccccc1)NC(=O)[C@H](CCC(=O)O)NC(=O)C(C)(C)NC(=O)[C@H](C)NC(=O)[C@H](C)NC(=O)[C@H](CCC(N)=O)NC(=O)[C@H](CCCCN)NC(=O)[C@H](CC(=O)O)NC(=O)[C@H](CC(C)C)NC(=O)[C@H](Cc1ccc(O)cc1)NC(=O)[C@@H](NC(=O)[C@H](CO)NC(=O)[C@H](Cc1ccc(O)cc1)NC(=O)[C@H](CC(=O)O)NC(=O)[C@H](CO)NC(=O)[C@@H](NC(=O)[C@H](Cc1ccccc1)NC(=O)[C@@H](NC(=O)CNC(=O)[C@H](CC(=O)O)NC(=O)CSCC(=O)NCCN1CCCCC1=O)[C@@H](C)O)[C@@H](C)O)[C@@H](C)CC)C(C)C)C(N)=O)C(=O)O` [Compound 217] (X6-DGTFTSDYSIYLDKQAA[Aib]EFVNWLLAGGPSSGAPPPSK([γGlu-Palmitoyl])-NH2), the Emax at GLP-1R [1] was found to be 97%; at GIP-R, 58%. Also, the EC50 on GLP-1R [1] was < 0.1 nM; at GIP-R, 1 to 10 nM; at GLP-1R [2], > 1000 nM.
